Experimental data taken from patent US20030166609A1, “Medicine containing polysacccharide substances for activating apoptosis” (priority 2000, published 2003).
Values belong to the substance of their own block, whether it stands above or below them.

What was measured:
Type in all cases: cell-based, human
[1] = test system: Fas receptors at the surface of T lymphocytes (of the Jurkat type); assay: Fas receptors at the surface of Jurkat-type T lymphocytes, fluorescence by flow cytometry
Method: Work was carried out on a culture of immortalized human cells consisting of T lymphocytes (of the Jurkat type).
The medium used for culturing the Jurkat-type cells is that marketed by the company Life Technologies under the name “RPMI 1640 Medium”; this medium is described by Moore et al. in the publication “A.M.A.” 199, 519 (1967).
10^6 T lymphocytes of the Jurkat type were suspended in 5 ml of this medium. The culturing was carried out in an incubator at a temperature of 37° C. and in an atmosphere containing 5% CO2.
After incubation for 24 hours, the cells multiplied to reach 2×10^6 cells.
(§1) These cells are recovered by centrifugation, and are washed in an isotonic PBS buffer. A further incubation of these 2×10^6 cells is then carried out in 1 ml of the abovementioned medium at 4° C. and in an atmosphere containing 5% CO2, for 45 minutes in the presence of an anti-Fas receptor, sold under the catalog number 05-201 by Euromedex, diluted to 1/50 in PBS containing 1% of bovine serum albumin (BSA).
At the end of this incubation, the cells are collected and are washed with the isotonic PBS buffer. After washing, a further incubation of the cells is carried out for 45 minutes at 4° C. in the presence of an antibody against hamster immunoglobulins (IgGs) (produced in the goat) which is coupled to fluorescein isothiocyanate, diluted to 1/50 in PBS containing 1% of BSA (marketed by Euromedex, No. AP128F).
Controls were prepared by incubating the T lymphocytes of the Jurkat type only with the second antibody (goat anti-hamster IgG coupled to fluorescein isothio-cyanate).
The increase in the number of Fas receptors at the surface of the cells, under the action of dextran sulfate, is then determined.
Consequently, the fluorescence of the cells (which is proportional to the number of receptors present at the surface) is determined in the absence of dextran sulfate and in the presence of dextran sulfate for a number of solutions at various concentrations. The ratio of the fluorescence in the absence of dextran sulfate to the fluorescence with dextran sulfate is then calculated. In the following text, the result of this calculation is called “ratio”.
Various assays are carried out by introducing into the culture medium, at time t=0 of the experiment, dextran sulfate at the following doses: 0.2 mg/ml, 0.1 mg/ml, 0.02 mg/ml and 0.002 mg/ml; the dextran sulfate is that marketed by the company Sigma.
After various times of incubation with the dextran sulfate, the presence of Fas receptors at the surface of the cells is detected by fluorescence. This fluorescence is induced by the fluorescein isothio-cyanate coupled to the anti-Fas receptor antibodies which are attached to the Fas receptors, and was measured by passing a cell sample containing 10^4 cells through a device such as those which function by flow cytometry, in this case that marketed by the company Beckton Dickinson under the name “FACS Scan Flow Cytometer”. The intensity of the fluorescence, which is expressed in arbitrary units, therefore depends on the number of Fas receptors present at the surface of the cells making up the sample.
For each sample, the curve representing the variation in fluorescence as a function of said number of cells having receptors at their surface is constructed on a graph on which the fluorescence (arbitrary units) is recorded on the X axis and the number of cells (to within one multiplication factor) having receptors at their surface is recorded on the Y axis; this curve reflects a Gaussian-type distribution of the fluorescence.
The various assays carried out make it possible to classify the cell populations as a function of the fluorescence, i.e. as a function of the number of receptors present at the surface of the cells.
The different maximum fluorescence values for each assay, which reflect the different numbers of receptors present at the surface, depend on the active products used in the various assays. […]

[2] = test system: Fas receptors at the surface of Hep-G2 liver cells; assay: Fas receptors at the surface of Hep-G2 liver cells, fluorescence by flow cytometry; conditions: for Fluorescence Ratio: vs control
Method: Work was carried out on a culture of liver cells named Hep-G2 (marketed by ECACC (European collection of human genetic cell lines)).
The same procedure is carried out as in example 1, replacing the T lymphocytes of the Jurkat type with Hep-G2 liver cells.
The presence of Fas receptors at the surface of the cells was measured by fluorescence, as in example 1, and the results obtained are expressed as in example 1, in the form of FIGS. 9 to 12. […]
For this, the same procedure as in example 1 was carried out.

[3] = test system: TNF alpha receptors (p55 TNF receptor) on Jurkat-type cells; assay: TNF alpha receptors at the surface of Jurkat-type cells, fluorescence by flow cytometry
Method: In this example, the effect of dextran sulfate at a concentration of 0.1 mg/ml on the increase in the number of TNF alpha receptors on Jurkat-type cells was measured.
The medium used for culturing the Jurkat-type cells is that marketed by the company Life Technologies under the name “RPMI 1640 medium”; this medium is described by Moore et al. in the publication “A.M.A.” 199, 519 (1967).
10^6 T lymphocytes are suspended in 5 ml of this medium. The culturing was carried out in an incubator at a temperature of 37° C. and in an atmosphere containing 5% CO2. After incubation for 24 hours, the cells multiplied to reach 2×10^6 cells.
as §1, with “incubation” for “incubation of these 2×10^6 cells”, “anti-human p55 TNF” for “anti-Fas”, “clone MR1-2, ref. MON9062 produced in mice” for “sold under the catalog number 05-201”, “Genzyme SA,” for “Euromedex,”
The cells are recovered and are washed with the isotonic PBS buffer. A further incubation is carried out with an antibody against mouse immunoglobulins (IgGs) (produced in the goat) coupled to fluorescein isothiocyanate, diluted to 1/50 in PBS containing 1% of BSA. […]
The influence of the dextran sulfate is determined by introducing 0.1 mg of dextran sulfate per ml into the culture medium.
The presence of TNF alpha receptors at the surface of the cells was measured by fluorescence as in the previous examples.
In FIG. 17, in which the Y-axis represents the number (to within one multiplication factor) of TNF alpha receptors at the surface of the cells, and in which the X-axis represents the intensity of fluorescence (arbitrary units), the Gaussian distribution of the fluorescence for the control sample (curve T1) and for the sample which was incubated in the presence of 0.1 mg/ml of dextran sulfate (curve C17) is represented in the form of a curve.

[4] = Hep-G2, 0.02 mg/ml dextran sulfate (0.2 mg/ml given in source), 6 h (curve C13)
[5] = Hep-G2, 0.02 mg/ml dextran sulfate (0.2 mg/ml given in source), 24 h (curve C14)
[6] = Hep-G2, 0.02 mg/ml dextran sulfate (0.2 mg/ml given in source), 48 h (curve C15)
[7] = Hep-G2, 0.02 mg/ml dextran sulfate (0.2 mg/ml given in source), 72 h (curve C16)
[8] = Hep-G2, dextran sulfate 0.002 mg/ml (curve C12)
[9] = Hep-G2, dextran sulfate 0.02 mg/ml (curve C11)
[10] = Hep-G2, dextran sulfate 0.1 mg/ml (curve C10)
[11] = Hep-G2, dextran sulfate 0.2 mg/ml (curve C9)

Fluorescence Value measured (peak of curve) ([1]; 0.02 mg/ml dextran sulfate, 6 h (curve C41)): 100 arbitrary units
Fluorescence Ratio ([1]; 0.02 mg/ml dextran sulfate, 6 h (curve C41), vs control): 2
Fluorescence Value measured (peak of curve) ([1]; 0.02 mg/ml dextran sulfate, 24 h (curve C42)): 120 arbitrary units
Fluorescence Ratio ([1]; 0.02 mg/ml dextran sulfate, 24 h (curve C42), vs control): 2.4
Fluorescence Value measured (peak of curve) ([1]; 0.02 mg/ml dextran sulfate, 48 h (curve C43)): 150 arbitrary units
Fluorescence Ratio ([1]; 0.02 mg/ml dextran sulfate, 48 h (curve C43), vs control): 3
Fluorescence Value measured (peak of curve) ([1]; 0.02 mg/ml dextran sulfate, 72 h (curve C44)): 80 arbitrary units
Fluorescence Ratio ([1]; 0.02 mg/ml dextran sulfate, 72 h (curve C44), vs control): 1.6
Fluorescence Value measured (peak of curve) ([1]; dextran sulfate 0.002 mg/ml (curve C5)): 90 arbitrary units
Fluorescence Ratio ([1]; dextran sulfate 0.002 mg/ml (curve C5), vs control): 1.13
Fluorescence Value measured (peak of curve) ([1]; dextran sulfate 0.02 mg/ml (curve C4)): 200 arbitrary units
Fluorescence Ratio ([1]; dextran sulfate 0.02 mg/ml (curve C4), vs control): 2.50
Fluorescence Value measured (peak of curve) ([1]; dextran sulfate 0.1 mg/ml (curve C3)): 250 arbitrary units
Fluorescence Ratio ([1]; dextran sulfate 0.1 mg/ml (curve C3), vs control): 3.13
Fluorescence Value measured (peak of curve) ([1]; dextran sulfate 0.2 mg/ml (curve C2)): 250 arbitrary units
Fluorescence Ratio ([1]; dextran sulfate 0.2 mg/ml (curve C2), vs control without dextran sulfate): 3.13
Substance: dextran sulfate
incubation time of the maximum of the increase in the number of Fas receptors at the cell surface ([1]; 0.02 mg/ml dextran sulfate): 48 h
minimum concentration for increase in the number of Fas receptors at the cell surface ([1]; at greater dilution effect too diminished, higher concentration does not enhance): 0.02 mg/mL
minimum concentration for increase in the number of Fas receptors at the cell surface ([2]; Hep-G2): 0.02 mg/mL
optimum concentration for increase in the number of Fas receptors at the cell surface ([2]; Hep-G2): 0.1 mg/mL
Fluorescence Value measured (peak of curve) [2, 4]: 40 arbitrary units
Fluorescence Ratio [2, 4]: 1.6
Fluorescence Value measured (peak of curve) [2, 5]: 50 arbitrary units
Fluorescence Ratio [2, 5]: 2
Fluorescence Value measured (peak of curve) [2, 6]: 70 arbitrary units
Fluorescence Ratio [2, 6]: 2.8
Fluorescence Value measured (peak of curve) [2, 7]: 50 arbitrary units
Fluorescence Ratio [2, 7]: 2
incubation time of the maximum of the increase in the number of Fas receptors at the cell surface ([2]; Hep-G2, dextran sulfate): 48 h
Fluorescence Value measured (peak of curve) [2, 8]: 60 arbitrary units
Fluorescence Ratio [2, 8]: 1
Fluorescence Value measured (peak of curve) [2, 9]: 120 arbitrary units
Fluorescence Ratio [2, 9]: 2
Fluorescence Value measured (peak of curve) [2, 10]: 140 arbitrary units
Fluorescence Ratio [2, 10]: 2.3
Fluorescence Value measured (peak of curve) [2, 11]: 160 arbitrary units
Fluorescence Ratio [2, 11]: 2.7
Fluorescence Value measured (peak of curve) ([3]; TNF alpha receptors, dextran sulfate 0.1 mg/ml (curve C17)): 200 arbitrary units
Fluorescence Ratio ([3]; TNF alpha receptors, dextran sulfate 0.1 mg/ml, vs control): 1.14
increase in the number of TNF alpha receptors at the surface ([3]; dextran sulfate 0.1 mg/ml, called weak): 10%

Fluorescence Value measured (peak of curve) ([1]; Ic 0.2 mg/ml, 6 h): 80 arbitrary units
Fluorescence Ratio ([1]; Ic 0.2 mg/ml, 6 h, vs control): 1.3
Fluorescence Value measured (peak of curve) ([1]; Ic 0.2 mg/ml, 24 h): 180 arbitrary units
Fluorescence Ratio ([1]; Ic 0.2 mg/ml, 24 h, vs control): 2.7
Fluorescence Value measured (peak of curve) ([1]; Ic 0.2 mg/ml, 48 h): 125 arbitrary units
Fluorescence Ratio ([1]; Ic 0.2 mg/ml, 48 h, vs control): 2.1
Fluorescence Value measured (peak of curve) ([1]; Ic 0.2 mg/ml, 72 h): 100 arbitrary units
Fluorescence Ratio ([1]; Ic 0.2 mg/ml, 72 h, vs control): 1.7
Substance: iota-carrageenan [Ic]
incubation time of the maximum of the increase in the number of Fas receptors at the cell surface ([1]; Ic 0.2 mg/ml): 24 h
